Measurements as given in patent publication US12539292B2, “BRM targeting compounds and associated methods of use” (Arvinas Operations, Inc., priority 2018, dated 2026).

Target: T1, BRM (Homo sapiens, UniProt P51531)
T1 construct: In-Cell Western Screen of BRM Degradation in SW1573 Cells; endogenous in cells; host or cells: SW1573
Assay: In-cell Western screen of BRM degradation in SW1573 cells (Dmax and DC50)
Assay type: cell-based
Details: for Dmax: SW1573, % degraded, when tested at the top concentration of between 0.3 and 10 μM, read-out: BRM Dmax (%); for DC50: target protein degradation, read-out: BRM DC50
Summary of the method: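 After adhering overnight, cells received compound for 18-20 hours. They were then washed in cold DPBS, fixed with 4% PFA for 20 min and permeabilized for 30 min. Blocking and fluorescent secondary staining followed before imaging.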

T1 sequence (P51531 whole entry): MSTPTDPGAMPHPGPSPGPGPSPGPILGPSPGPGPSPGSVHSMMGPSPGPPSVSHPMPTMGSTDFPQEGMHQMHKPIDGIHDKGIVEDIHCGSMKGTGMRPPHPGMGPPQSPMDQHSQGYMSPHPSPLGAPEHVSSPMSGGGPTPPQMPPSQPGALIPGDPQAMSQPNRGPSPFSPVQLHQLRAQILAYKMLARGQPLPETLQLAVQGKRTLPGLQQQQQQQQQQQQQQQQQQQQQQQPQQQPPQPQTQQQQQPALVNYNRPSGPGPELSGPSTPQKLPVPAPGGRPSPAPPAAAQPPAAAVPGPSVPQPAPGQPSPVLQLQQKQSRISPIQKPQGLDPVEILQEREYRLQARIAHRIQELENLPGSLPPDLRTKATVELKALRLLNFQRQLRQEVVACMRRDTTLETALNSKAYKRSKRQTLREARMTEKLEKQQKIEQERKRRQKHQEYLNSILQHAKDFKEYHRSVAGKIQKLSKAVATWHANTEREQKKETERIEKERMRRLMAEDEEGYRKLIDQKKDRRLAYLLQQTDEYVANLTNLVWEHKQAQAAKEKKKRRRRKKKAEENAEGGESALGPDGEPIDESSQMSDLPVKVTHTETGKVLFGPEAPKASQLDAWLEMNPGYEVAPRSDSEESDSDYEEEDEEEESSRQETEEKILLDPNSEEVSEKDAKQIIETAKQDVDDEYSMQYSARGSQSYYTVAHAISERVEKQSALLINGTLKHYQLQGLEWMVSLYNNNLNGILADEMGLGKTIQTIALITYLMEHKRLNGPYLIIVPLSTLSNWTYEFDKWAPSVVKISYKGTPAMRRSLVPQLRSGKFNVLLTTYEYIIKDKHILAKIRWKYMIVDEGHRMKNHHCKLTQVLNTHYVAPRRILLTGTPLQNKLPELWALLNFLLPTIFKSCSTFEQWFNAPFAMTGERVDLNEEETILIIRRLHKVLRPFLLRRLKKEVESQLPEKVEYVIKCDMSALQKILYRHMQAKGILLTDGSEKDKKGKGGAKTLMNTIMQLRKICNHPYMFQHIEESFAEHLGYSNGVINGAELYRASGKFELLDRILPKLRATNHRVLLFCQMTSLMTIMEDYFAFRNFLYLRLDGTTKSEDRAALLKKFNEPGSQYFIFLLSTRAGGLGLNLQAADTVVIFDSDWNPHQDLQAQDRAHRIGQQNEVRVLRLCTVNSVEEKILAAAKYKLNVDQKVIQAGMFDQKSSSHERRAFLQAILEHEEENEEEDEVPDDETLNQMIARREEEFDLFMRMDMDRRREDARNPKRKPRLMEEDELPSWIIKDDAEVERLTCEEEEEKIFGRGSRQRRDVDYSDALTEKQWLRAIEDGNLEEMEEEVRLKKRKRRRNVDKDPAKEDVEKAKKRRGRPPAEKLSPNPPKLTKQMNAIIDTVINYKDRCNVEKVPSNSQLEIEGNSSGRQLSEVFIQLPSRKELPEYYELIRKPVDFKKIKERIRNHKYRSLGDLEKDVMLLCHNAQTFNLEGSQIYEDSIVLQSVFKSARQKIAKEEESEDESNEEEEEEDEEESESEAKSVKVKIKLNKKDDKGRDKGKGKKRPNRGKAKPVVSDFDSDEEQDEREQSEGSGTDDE

Row | Compound | Dmax [%] | DC50 [nM]
1 | Cc1ncsc1-c1ccc([C@H](C)NC(=O)[C@@H]2C[C@@H](O)CN2C(=O)[C@@H](c2cc(OCCC3CCN(C(=O)[C@H]4C[C@@H](CN5CCC([C@H](C)n6cc(-c7cc(-c8ccccc8O)nnc7N)cn6)CC5)C4)CC3)no2)C(C)C)cc1 [compound 450, (2S,4R)-1-((R)-2-(3-(2-(1-((1R,3S)-3-((4-((S)-1-(4-(3-amino-6-(2-hydroxyphenyl)pyridazin-4-yl)-1H-pyrazol-1-yl)ethyl)piperidin-1-yl)methyl)cyclobutane-1-carbonyl)piperidin-4-yl)ethoxy)isoxazol-5-yl)-3-methylbutanoyl)-4-hydroxy-N-((S)-1-(4-(4-methylthiazol-5-yl)phenyl)ethyl)pyrrolidine-2-carboxamide] | > 75 | 10 to 30
2 | Cc1ncsc1-c1ccc([C@H](C)NC(=O)[C@@H]2C[C@@H](O)CN2C(=O)[C@H](c2cc(OCCC3CCN(C(=O)[C@H]4C[C@@H](CN5CCC([C@@H](C)n6cc(-c7cc(-c8ccccc8O)nnc7N)cn6)CC5)C4)CC3)no2)C(C)C)cc1 [compound 451, (2S,4R)-1-((S)-2-(3-(2-(1-((1S,3R)-3-((4-((R)-1-(4-(3-amino-6-(2-hydroxyphenyl)pyridazin-4-yl)-1 H-pyrazol-1-yl)ethyl)piperidin-1-yl)methyl)cyclobutane-1-carbonyl)piperidin-4-yl)ethoxy)isoxazol-5-yl)-3-methylbutanoyl)-4-hydroxy-N-((S)-1-(4-(4-methylthiazol-5-yl)phenyl)ethyl)pyrrolidine-2-carboxamide] | > 75 | < 2.5
3 | Cc1ncsc1-c1ccc([C@H](C)NC(=O)[C@@H]2C[C@@H](O)CN2C(=O)[C@@H](c2cc(OCCC3CCN(C(=O)[C@H]4C[C@@H](CN5CCC([C@@H](C)n6cc(-c7cc(-c8ccccc8O)nnc7N)cn6)CC5)C4)CC3)no2)C(C)C)cc1 [compound 452, (2S,4R)-1-((R)-2-(3-(2-(1-((1S,3S)-3-((4-((R)-1-(4-(3-amino-6-(2-hydroxyphenyl)pyridazin-4-yl)-1H-pyrazol-1-yl)ethyl)piperidin-1-yl)methyl)cyclobutane-1-carbonyl)piperidin-4-yl)ethoxy)isoxazol-5-yl)-3-methylbutanoyl)-4-hydroxy-N-((S)-1-(4-(4-methylthiazol-5-yl)phenyl)ethyl)pyrrolidine-2-carboxamide] | > 75 | 10 to 30

Continued, values first:

Row | Dmax [%] | DC50 [nM] | Compound
4 | > 75 | < 2.5 | Cc1ncsc1-c1ccc([C@H](C)NC(=O)[C@@H]2C[C@@H](O)CN2C(=O)[C@H](c2cc(OCCC3CCN(C(=O)[C@H]4C[C@H](CN5CCC([C@H](C)n6cc(-c7cc(-c8ccccc8O)nnc7N)cn6)CC5)C4)CC3)no2)C(C)C)cc1 [compound 453, (2S,4R)-1-((S)-2-(3-(2-(1-((1S,3S)-3-((4-((S)-1-(4-(3-amino-6-(2-hydroxyphenyl)pyridazin-4-yl)-1H-pyrazol-1-yl)ethyl)piperidin-1-yl)methyl)cyclobutane-1-carbonyl)piperidin-4-yl)ethoxy)isoxazol-5-yl)-3-methylbutanoyl)-4-hydroxy-N-((S)-1-(4-(4-methylthiazol-5-yl)phenyl)ethyl)pyrrolidine-2-carboxamide]
5 |  | > 30 | Cc1ncsc1-c1ccc([C@H](C)NC(=O)[C@@H]2C[C@@H](O)CN2C(=O)[C@@H](c2cc(OCCC3CCN(C(=O)[C@H]4C[C@H](CN5CCC([C@H](C)n6cc(-c7cc(-c8ccccc8O)nnc7N)cn6)CC5)C4)CC3)no2)C(C)C)cc1 [compound 454, (2S,4R)-1-((R)-2-(3-(2-(1-((1S,3R)-3-((4-((S)-1-(4-(3-amino-6-(2-hydroxyphenyl)pyridazin-4-yl)-1H-pyrazol-1-yl)ethyl)piperidin-1-yl)methyl)cyclobutane-1-carbonyl)piperidin-4-yl)ethoxy)isoxazol-5-yl)-3-methylbutanoyl)-4-hydroxy-N-((S)-1-(4-(4-methylthiazol-5-yl)phenyl)ethyl)pyrrolidine-2-carboxamide]
